Biological target: human PDE10A2 (Homo sapiens (Human), UniProt Q9Y233)
Test: PDE10 fluorescence polarization (IMAP FP) inhibition assay
Assay type: biochemical
Conditions: human PDE10A2 lysate, FAM-labeled cAMP 50 nM, room temperature; read-out: PDE10A Ki
How it was run: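 Cytoplasmic lysate of AD293 cells transiently expressing human PDE10A2, diluted for ~20% conversion of 50 nM FAM-cAMP, in 10 mM Tris pH 7.2, 10 mM MgCl2, 1 mM DTT, 0.01% Tween-20. Reaction 30 min at room temperature, read by IMAP fluorescence polarization; 10-point 3-fold titrations, 1% DMSO as 0%, reference PDE10 inhibitor at 5,000× Ki as 100%.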

human PDE10A2, sequence (Q9Y233 267-1055): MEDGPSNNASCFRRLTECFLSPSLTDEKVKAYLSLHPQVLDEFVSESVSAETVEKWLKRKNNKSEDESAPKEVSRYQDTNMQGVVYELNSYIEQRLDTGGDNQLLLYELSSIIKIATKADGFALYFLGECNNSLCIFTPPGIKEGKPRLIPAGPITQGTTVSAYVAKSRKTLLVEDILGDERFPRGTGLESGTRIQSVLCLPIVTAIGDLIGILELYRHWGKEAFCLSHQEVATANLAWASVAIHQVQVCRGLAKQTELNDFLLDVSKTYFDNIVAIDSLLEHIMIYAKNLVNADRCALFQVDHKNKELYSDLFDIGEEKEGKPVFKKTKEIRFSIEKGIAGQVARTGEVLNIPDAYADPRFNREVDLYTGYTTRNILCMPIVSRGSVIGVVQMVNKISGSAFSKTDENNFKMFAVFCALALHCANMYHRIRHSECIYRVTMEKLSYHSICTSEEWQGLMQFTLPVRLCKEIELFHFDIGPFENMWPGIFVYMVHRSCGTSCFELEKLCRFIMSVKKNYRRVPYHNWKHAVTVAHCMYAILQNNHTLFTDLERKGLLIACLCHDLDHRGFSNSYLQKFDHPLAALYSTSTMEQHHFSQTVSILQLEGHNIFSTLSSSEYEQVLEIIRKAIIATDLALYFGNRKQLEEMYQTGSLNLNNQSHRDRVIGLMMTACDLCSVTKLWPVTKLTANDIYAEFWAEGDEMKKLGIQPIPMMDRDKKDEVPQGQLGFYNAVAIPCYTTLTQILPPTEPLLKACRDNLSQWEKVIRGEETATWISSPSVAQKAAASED

Ki: 0.192 nM
Structure (SMILES): COc1ccc([C@H]2C[C@@H]2COc2cc(NCc3ccnn3C)c(=O)n(C)n2)nc1 [Example 100, 6-(((1S,2S)-2-(5-methoxypyridin-2-yl)-cyclopropyl)methoxy)-2-methyl-4-(((1-methyl-1H-pyrazol-5-yl)methyl)-amino)pyridazin-3(2H)one]

Source: patent US9353104B2, “Substituted pyridizinone derivatives as PDE10 inhibitors” (priority 2013, dated 2016)
